Laboratory results as given in patent publication US6962943B2, “Gabusectin derivatives, processes for preparing them and their use” (Aventis Pharma Deutschland GmbH, priority 2002, dated 2005).
Values after ≈ are worked out from the molar mass of the structure shown.

Columns and labels:
[1] = Stability in solution (physicochemical properties); settings: for Stability in strongly acidic and strongly alkaline solution: strongly acidic and strongly alkali(ne) solution
From the text: (§1) Stable in neutral and mildly acidic medium but unstable in strongly acidic and strongly alkali solution. […] Stable in neutral and mildly acidic medium but unstable in strongly acidic and strongly alkaline solution.

[2] = Tolerability; settings: at and above its effective concentration
From the text: Gabusectin is well-tolerated at and above its effective concentration.

[3] = system: Staphylococcus aureus; assay: Agar diffusion test; assay type: cell-based; settings: 37° C., 16 hours
Description: Agar plates containing 2 ml of Staphylococcus aureus inoculum in 200 ml of agar solution were prepared. gabusectin was applied, in a 10 mM solution, to 6 mm-diameter paper disks, which were then laid on the agar plate. The inoculated Staphylococcus plates were incubated at 37° C. for 16 hours. Inhibition halos having the following diameters (mm) were then observed: Agar plates containing 2 ml of Staphylococcus aureus inoculum in 200 ml of agar solution were prepared. gabusectin methyl ester is applied, in a 10 mM solution, to 6 mm-diameter paper disks, which are then laid on the agar plate. The inoculated Staphylococcus plates were incubated at 37° C. for 16 hours. Inhibition halos having the following diameters (mm) were then observed.

[4] = system: S. aureus (SG511); assay: In-vitro antibacterial activity, serial dilution test; assay type: cell-based; settings: Staphylococcus aureus
From the text: (§2) Table 1 summarizes the minimum inhibitory concentrations (MICs) of gabusectin, by way of example.

[5] = system: E. faecium (M78L); assay: as above; assay type: cell-based; settings: Enterococcus faecium, read-out: MIC values
From the text: as §2

[6] = system: S. aureus (Exp54146); assay: as above; assay type: cell-based; settings: Staphylococcus aureus
From the text: as §2

[7] = system: S. pyogenes (A561); assay: as above; assay type: cell-based; settings: Streptococcus pyogenes
From the text: as §2

[8] = Solubility (appearance/physicochemical properties)
From the text: as §1

[9] = 10 μL of 10 mM solution on 6 mm paper disk
[10] = 20 μL of 10 mM solution on 6 mm paper disk
[11] = 40 μL of 10 mM solution on 6 mm paper disk

| Compound | Stability in neutral and mildly acidic medium [1] | Stability in strongly acidic and strongly alkaline solution [1] | Tolerability [2] | Inhibition halo size [3, 9] [mm] | Inhibition halo size [3, 10] [mm] | Inhibition halo size [3, 11] [mm] | MIC [4] [µg/mL] | MIC [5] [µg/mL] | MIC [6] [µg/mL] | MIC [7] [µg/mL] | Solubility in medium-polar and polar organic solvents [8] | Solubility in water [8] |
| --- | --- | --- | --- | --- | --- | --- | --- | --- | --- | --- | --- | --- |
| C/C=C/C1C(C)=CC2(C)CC(C)CCC2C1(C)/C(O)=C1\C(=O)C(CCC(=O)O)N(C)C1=O (stereo not shown) [gabusectin] | Stable | unstable | well-tolerated | 8 | 14 | 17 | 5 (≈ 11.3 µM) | 40 (≈ 90.2 µM) | 20 (≈ 45.1 µM) | 20 (≈ 45.1 µM) | soluble | not particularly soluble |
| C/C=C/[C@H]1C(C)=C[C@@]2(C)C[C@H](C)CC[C@H]2[C@]1(C)/C(O)=C1\C(=O)C(CCC(=O)OC)N(C)C1=O (stereo partly shown) [gabusectin methyl ester] | Stable | unstable |  | 0 | 7 | 8 |  |  |  |  | soluble | not particularly soluble |
